Assay results taken from patent US4052436A, “Fluorene-2-acetic acids and derivatives, process and method of using” (E. R. Squibb & Sons, Inc., priority 1976, dated 1977).

Tests used:
[1] = anti-inflammatory activity of the optical isomers and dl mixture (test not specified); assay type: in vivo; conditions: α-methyl-fluorene-2-acetic acid, d and l optical isomers and dl mixture
[2] = tested on: carrageenin-induced edema in the hind paw of the rat; assay: carrageenin-induced edema assay (oral, hind paw); assay type: in vivo; conditions: 5 h, carrageenin injected into hind paw 2 h after dose, edema weighed 3 h after injection, read-out: ID50 (calculated dose that produces 50 percent inhibition of the edema)
Experimental: The anti-inflammatory activities of fluorene-2-acetic acid and its derivatives may be tested by a carrageenin-induced edema assay. Carrageenin injected into the footpad of rats produces an edematous condition, due mainly to vaso-active mediators. The compound to be tested is administered orally and assessed for inhibition of the edema.
The following examples show the anti-inflammatory activity of fluorene-2-acetic acid and 7-chloro-fluorene-2-acetic acid as determined by carrageenin-induced edema assay.
The procedure for these experiments is to first orally administer the test compound to a rat. Two hours later a solution of carrageenin is injected into the plantar surface of the hind paw of the rat. Three hours after the injection (5 hours after administration of the drug) the edema in the treated paw is measured by weighing the paws. To establish the baseline, the weight of the contralateral paw is determined. A dose-response curve is established, and the activity of the drug is recorded as the calculated dose that produces 50 percent inhibition (ID50) of the edema.

| SMILES | anti-inflammatory activity [1] | ED50 [2] [mg/kg] |
| --- | --- | --- |
| CC(C(=O)O)c1ccc2c(c1)Cc1ccccc1-2 (single isomer, unassigned) [l, α-methyl-fluorene-2-acetic acid] | possesses anti-inflammatory activity |  |
| CC(C(=O)O)c1ccc2c(c1)Cc1ccccc1-2 (stereo not drawn) [dl mixture, α-Methyl fluorene-2-acetic acid] | possesses anti-inflammatory activity |  |
| CC(C(=O)O)c1ccc2c(c1)Cc1ccccc1-2 (single isomer, unassigned) [d, α-methyl-fluorene-2-acetic acid] | possesses anti-inflammatory activity |  |
| O=C(O)Cc1ccc2c(c1)Cc1cc(Cl)ccc1-2 [7-chloro-fluorene-2-acetic acid] |  | ~150 |
| O=C(O)Cc1ccc2c(c1)Cc1ccccc1-2 [fluorene-2-acetic acid] |  | 67 |
